Experiments:
[1] = test system: panel of solid tumor and leukemic cell lines; assay: Primary growth inhibition screen, MCLs and T-ALLs compared to other tumor types; format: cell-based, human; settings: from GI50 values of primary screen
Experimental: Cell lines were cultured in RPMI-1640 medium (Thermo Scientific) supplemented with 10% heat inactivated FBS and penicillin-streptomycin at 37°C under humidified conditions and 5% CO2. All cell lines tested negative for mycoplasma. […] Compounds were added 24 hrs post-plating at the indicated concentrations. Cell counts were determined from duplicate wells 96 hrs post-treatment using the Cell Titer Blue assay in conjunction with the GloMax plate reader (Promega).

[2] = test system: phospho-PTEN Ser380 and AKT Ser129 in CEM and Granta-519 cells; assay: Western blot of CK2-mediated PTEN and AKT phosphorylation; format: cell-based, human; settings: CEM and Granta-519, 24 hours
Experimental: Figure 6 Inhibition of CK2/CDK4 mediated signaling by ON108110 (A) CEM and (B) Granta-519 cells were treated with increasing concentrations of ON 108110 for 24 hours. Whole cell extracts were subjected to western blot analysis using antibodies directed against the indicated proteins. GAPDH is shown as a loading control.
Cells were grown as indicated, lysed in lysis buffer (20mM Tris, pH 8.0/ 137mM NaCl/ 10% glycerol/ 1% NP-40) supplemented with 1X protease and phosphatase inhibitor cocktail on ice and resolved by SDS-PAGE. The proteins were transferred to a nitrocellulose membrane and subjected to Western blot analysis using the indicated antibodies. Proteins were visualized using an Odyssey imaging system (LI-COR Biosciences).

[3] = molecular target: CDK4 (Homo sapiens, UniProt P11802); assay: In vitro kinase assay with recombinant protein (32P-ATP, filtermat); format: biochemical; settings: recombinant CDK4, independent in vitro kinase assay, 20μM ATP
Experimental: (§1) (B) Structure of ON108110. (C) Calculation of IC50 values against CDK4 and CDK6 and (D) CK2α1 and CK2α2 by ON108110. Recombinant proteins were incubated with the indicated concentrations of ON108110 and subjected to in vitro kinase assays as described in the materials and methods section. Values obtained were plotted as a function of log drug concentration. IC50 values were determined by performing sigmoidal non-linear regression with a variable slope.
(§2) Recombinant CDK4/CYCLIN D1 or CK2α1 were mixed with their respective synthetic peptide substrates (10ng) and incubated with DMSO or increasing concentrations of ON108110 in 20μl kinase buffer [50mM Tris-HCl (pH 7.5), 10mM MgCl2, 1mM EGTA, 2mM DTT and 0.01% NP-40] for 30 min. at room temperature. Kinase reactions were carried out for 20 min at 30°C in the presence of 5μl of substrate-ATP mixture (1μg RB, 20μM ATP, 20μCi γ-^32P-ATP). […] The filtermat was air-dried, blocked with methanol for 2 minutes followed by three washes with 75mM phosphoric acid. The filtermat was then air-dried and analyzed using a phosphoimager.

[4] = molecular target: CK2α2 (Homo sapiens, UniProt P19784); assay: as above; format: biochemical; settings: recombinant CK2α2, independent in vitro kinase assay, 20μM ATP
Experimental: as §1, §2

[5] = molecular target: CK2α1 (Homo sapiens, UniProt P68400); assay: as above; format: biochemical; settings: recombinant CK2α1, independent in vitro kinase assay, 20μM ATP
Experimental: as §1, §2

[6] = molecular target: T1, recombinant CK2α1 (Homo sapiens, UniProt P68400); assay: Microscale thermophoresis (MST); format: binding; settings: 16 concentrations 0.1nM-1000nM, average of 3 independent experiments
T1 construct: Amino acid residues 3-335 of CK2α1 were cloned using BamH1 and HindIII into pET28bsmt3-SUMO fusion vector; SUMO (N); made in house; host or cells: Escherichia coli BL21-DE3 (RIL)
Experimental: Purified His6-CK2α1 (kinase domain) was labeled with red NT-647 cysteine-reactive dye according to the manufacturer (NanoTemper Technologies). A fixed quantity of NT-647-labeled CK2α1 (50nM) was incubated with the indicated concentrations of ON108110 in binding buffer (20 mM Tris-HCl, pH 7.5, 150 mM NaCl, 1 mM MgCl2, 0.1% Triton X-100, and 2% DMSO) at room temperature in the dark for 30 min. Samples were then loaded into hydrophilic capillaries (NanoTemper Technologies) and binding was measured using the Monolith NT.115 (NanoTemper Technologies). Binding data were analyzed using thermophoresis or hot/cold analysis, as previously described prior to normalization to either ΔFnorm[%(10^*(Fnorm(bound)-Fnorm(unbound)) or fraction bound (ΔFnorm[%]/amplitude). Dissociation constants (Kd) were calculated using built-in curve-fitting software provided by the manufacturer (NanoTemper Technologies).

[7] = test system: MCL and ALL cell lines as well as normal PBMCs; assay: GI50 of MCL and ALL cell lines compared to normal PBMCs (Figure 4C); format: cell-based, human; settings: MCL and T-ALL cell lines vs PBMCs in vitro, 72 hours post-treatment
Experimental: Figure 4 CK2 and CDK4 expression in cell lines and primary samples (A) mRNA levels of CK2 subunits in a panel of MCL and T-ALL leukemic cell lines and normal human PBMCs. (B) Protein levels of CK2 subunits and pRB^Ser807/811 in a panel of MCL and T-ALL leukemic cell lines and normal human PBMCs. (C) Calculation of GI50 values against of ON108110 against MCL and ALL cell lines as well as normal PBMCs 72 hours post-treatment.
Cell lines were cultured in RPMI-1640 medium (Thermo Scientific) supplemented with 10% heat inactivated FBS and penicillin-streptomycin at 37°C under humidified conditions and 5% CO2. All cell lines tested negative for mycoplasma. […] Compounds were added 24 hrs post-plating at the indicated concentrations. […]

Sequence of CK2α2 (P19784 whole entry): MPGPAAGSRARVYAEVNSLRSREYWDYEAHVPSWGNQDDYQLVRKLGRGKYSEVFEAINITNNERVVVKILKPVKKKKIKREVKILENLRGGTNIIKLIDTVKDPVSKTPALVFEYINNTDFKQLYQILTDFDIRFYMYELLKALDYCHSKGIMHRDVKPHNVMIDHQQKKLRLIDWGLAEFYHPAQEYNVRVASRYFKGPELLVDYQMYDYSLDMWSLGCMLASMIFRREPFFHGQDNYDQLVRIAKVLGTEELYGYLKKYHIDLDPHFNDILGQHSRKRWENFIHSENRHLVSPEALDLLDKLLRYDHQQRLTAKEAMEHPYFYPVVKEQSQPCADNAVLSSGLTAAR
T1 sequence (P68400 3-335): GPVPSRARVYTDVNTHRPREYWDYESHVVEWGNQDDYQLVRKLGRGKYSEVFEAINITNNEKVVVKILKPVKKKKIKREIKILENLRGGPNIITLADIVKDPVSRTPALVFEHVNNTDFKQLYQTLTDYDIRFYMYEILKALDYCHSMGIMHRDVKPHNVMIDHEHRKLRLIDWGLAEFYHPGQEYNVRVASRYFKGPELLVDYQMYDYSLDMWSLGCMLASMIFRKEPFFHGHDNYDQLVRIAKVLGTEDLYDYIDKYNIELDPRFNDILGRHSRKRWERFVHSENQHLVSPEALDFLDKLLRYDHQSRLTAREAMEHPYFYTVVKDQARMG
Sequence of CDK4 (P11802 whole entry): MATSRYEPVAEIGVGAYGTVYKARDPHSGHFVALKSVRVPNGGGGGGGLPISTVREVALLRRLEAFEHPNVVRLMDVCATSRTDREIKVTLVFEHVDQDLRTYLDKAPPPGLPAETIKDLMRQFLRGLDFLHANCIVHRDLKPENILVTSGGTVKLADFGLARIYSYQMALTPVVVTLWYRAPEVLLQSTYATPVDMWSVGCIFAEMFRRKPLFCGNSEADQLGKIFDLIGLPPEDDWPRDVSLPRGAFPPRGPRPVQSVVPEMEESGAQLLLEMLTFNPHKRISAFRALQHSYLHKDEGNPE
Sequence of CDK4 (P24385 whole entry partner): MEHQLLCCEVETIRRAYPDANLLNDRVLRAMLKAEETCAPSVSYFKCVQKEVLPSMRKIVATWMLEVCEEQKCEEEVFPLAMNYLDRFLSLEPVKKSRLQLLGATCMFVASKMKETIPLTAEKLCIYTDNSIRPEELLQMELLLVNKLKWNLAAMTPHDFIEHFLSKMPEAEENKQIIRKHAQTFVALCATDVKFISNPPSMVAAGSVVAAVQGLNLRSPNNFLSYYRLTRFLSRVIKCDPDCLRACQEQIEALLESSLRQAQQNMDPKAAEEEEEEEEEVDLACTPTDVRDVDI
Sequence of CK2α1 (P68400 whole entry): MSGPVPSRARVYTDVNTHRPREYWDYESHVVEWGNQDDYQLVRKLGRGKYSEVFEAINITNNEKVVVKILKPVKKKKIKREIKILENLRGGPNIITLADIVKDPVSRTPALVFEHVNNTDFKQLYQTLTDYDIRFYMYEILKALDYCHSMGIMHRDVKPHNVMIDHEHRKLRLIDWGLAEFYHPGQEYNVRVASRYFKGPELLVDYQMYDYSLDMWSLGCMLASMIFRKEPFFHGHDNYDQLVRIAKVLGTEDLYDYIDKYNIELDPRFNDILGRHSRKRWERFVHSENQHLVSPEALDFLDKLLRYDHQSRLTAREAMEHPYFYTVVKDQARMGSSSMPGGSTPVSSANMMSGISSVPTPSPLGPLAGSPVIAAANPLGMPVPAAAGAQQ

CC(=O)Oc1ccc(/C=C2\Sc3ccc(F)cc3NC2=O)cc1[N+](=O)[O-] [ON108110]
fold higher cytotoxicity against MCLs and T-ALLs compared to other tumor types [1]: 10-20 fold | level of AKT Ser129 [2]: reduction | level of phospho-PTEN Ser380 [2]: lower levels | IC50 [3]: 6 nM | IC50 [4]: 2 nM | IC50 [5]: 3 nM | Kd [6]: 2.5 nM | fold more sensitive compared to PBMCs (IC50 values) [7]: > 100 fold
